Results as given in ChEMBL document CHEMBL1156115, “The design of potent and selective inhibitors of DPP-4: optimization of ADME properties by amide replacements” (Bioorg Med Chem Lett, 2009).
The source made the active and inactive calls. No cut-off for these calls is given here.

How the values were obtained:
[1] = molecular target: Dipeptidyl peptidase 2 (Homo sapiens, UniProt Q9UHL4); test: Inhibition of DPP7
[2] = Distribution coefficient, log D of the compound; format: physicochemical; settings: octanol/water
[3] = (§1) Apparent permeability from apical to basolateral side of human Caco-2 cells; format: ADME, cell-based
[4] = (§2) Apparent permeability from basolateral to apical side of human Caco-2 cells; format: ADME, cell-based
[5] = Half life in human liver microsomes at 3 uM; format: ADME, Microsome
[6] = Half life in rat liver microsomes at 3 uM; format: ADME, Microsome
[7] = test system: Caco-2; test: as §1; format: ADME, cell-based
[8] = test system: Caco-2; test: as §2; format: ADME, cell-based
[9] = molecular target: T1, Prolyl endopeptidase (Homo sapiens, UniProt P48147); test: Inhibition of human POP expressed in Escherichia coli after 30 mins by continuous fluorescent assay
T1 sequence (P48147 whole entry): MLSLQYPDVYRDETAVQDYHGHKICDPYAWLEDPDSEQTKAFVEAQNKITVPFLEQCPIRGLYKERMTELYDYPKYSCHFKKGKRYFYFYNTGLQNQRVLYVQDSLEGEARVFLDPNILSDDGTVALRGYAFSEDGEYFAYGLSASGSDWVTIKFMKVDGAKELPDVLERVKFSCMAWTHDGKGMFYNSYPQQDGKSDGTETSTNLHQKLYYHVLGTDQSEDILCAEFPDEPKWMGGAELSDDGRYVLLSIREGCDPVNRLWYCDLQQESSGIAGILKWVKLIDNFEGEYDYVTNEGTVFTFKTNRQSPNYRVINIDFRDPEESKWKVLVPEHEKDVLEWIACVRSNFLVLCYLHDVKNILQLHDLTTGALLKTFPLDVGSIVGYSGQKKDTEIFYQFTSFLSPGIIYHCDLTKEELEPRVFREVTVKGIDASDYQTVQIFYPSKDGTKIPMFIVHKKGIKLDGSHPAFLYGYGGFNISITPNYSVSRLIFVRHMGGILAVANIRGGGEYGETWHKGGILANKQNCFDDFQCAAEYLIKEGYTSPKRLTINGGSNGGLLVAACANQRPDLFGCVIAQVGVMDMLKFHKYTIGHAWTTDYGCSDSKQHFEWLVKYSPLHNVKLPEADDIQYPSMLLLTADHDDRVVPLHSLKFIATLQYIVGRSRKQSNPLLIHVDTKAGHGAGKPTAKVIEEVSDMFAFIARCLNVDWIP

[10] = Half life in Wistar rat at 1 mg/kg, iv or 3 mg/kg, po; format: ADME, organism-based; settings: in vivo
[11] = Clearance in Wistar rat at 1 mg/kg, iv or 3 mg/kg, po; format: ADME, organism-based; settings: in vivo
[12] = Apparent volume of distribution in Wistar rat at 1 mg/kg, iv or 3 mg/kg, po; format: ADME, organism-based; settings: in vivo, read-out: Vz
[13] = Oral bioavailability in Wistar rat at 3 mg/kg; format: ADME, organism-based; settings: in vivo
[14] = test system: Mus musculus; test: Antihyperglycemic activity in obese mouse diabetic model assessed as reduction in peak glucose excursion at 3 mg/kg, po administered 30 mins before glucose challenge by oral glucose tolerance test; format: functional, organism-based; set-up: dose 3 mg/kg
[15] = molecular target: Dipeptidyl peptidase 4 (Mus musculus) (UniProt P28843); test: Inhibition of DPP4 in mouse plasma up to 60 mins; format: cell-free
Chain of Dipeptidyl peptidase 4 (Mus musculus) (P28843 whole entry, looked up): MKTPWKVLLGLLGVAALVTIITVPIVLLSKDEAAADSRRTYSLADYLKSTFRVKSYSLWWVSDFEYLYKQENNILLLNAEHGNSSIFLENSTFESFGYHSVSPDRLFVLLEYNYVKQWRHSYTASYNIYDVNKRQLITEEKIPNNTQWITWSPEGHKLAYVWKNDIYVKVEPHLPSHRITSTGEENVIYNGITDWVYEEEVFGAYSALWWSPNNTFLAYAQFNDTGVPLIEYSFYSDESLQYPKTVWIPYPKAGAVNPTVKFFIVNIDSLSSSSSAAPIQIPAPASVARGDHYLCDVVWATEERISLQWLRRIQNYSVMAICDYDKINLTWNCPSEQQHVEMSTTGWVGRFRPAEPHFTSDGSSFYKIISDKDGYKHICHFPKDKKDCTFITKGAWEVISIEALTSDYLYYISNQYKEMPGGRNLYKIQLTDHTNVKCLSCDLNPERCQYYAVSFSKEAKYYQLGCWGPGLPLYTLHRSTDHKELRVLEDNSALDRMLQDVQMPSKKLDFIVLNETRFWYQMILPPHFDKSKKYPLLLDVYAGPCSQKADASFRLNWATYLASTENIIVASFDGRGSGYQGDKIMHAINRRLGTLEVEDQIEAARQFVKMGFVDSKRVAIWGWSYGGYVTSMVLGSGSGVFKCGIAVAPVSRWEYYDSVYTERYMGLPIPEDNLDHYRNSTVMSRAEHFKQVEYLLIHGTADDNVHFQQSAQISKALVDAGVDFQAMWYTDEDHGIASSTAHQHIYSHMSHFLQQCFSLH

[16] = molecular target: Dipeptidyl peptidase 4 (Mus musculus) (UniProt P28843); test: Inhibition of DPP4 in mouse plasma up to 180 mins; format: cell-free

SMILES	IC50 [1]	logD [2]	half-life at 3 µM [5]	half-life at 3 µM [6]	IC50 [9]	further results
N[C@@H](CC(=O)N1CCC[C@H]1c1nc(-c2ncccn2)no1)Cc1cc(F)c(F)cc1F	2.2 µM	–	–	–	–	–
N[C@@H](CC(=O)N1CCC[C@H]1c1nc(-c2ccccn2)no1)Cc1cc(F)c(F)cc1F	0.886 µM	–	–	–	–	–
CC(=O)N1CC(c2noc([C@@H]3CCCN3C(=O)C[C@H](N)Cc3cc(F)c(F)cc3F)n2)C1	17 µM	–	–	–	–	–
N[C@@H](CC(=O)N1CCC[C@H]1c1nc(C2CC2)no1)Cc1cc(F)c(F)cc1F	3.8 µM	1.61	> 2 h	1.18 h	–	Papp A→B [3]: 21 ×10⁻⁶ cm/s; Papp B→A [4]: 52 ×10⁻⁶ cm/s
N[C@@H](CC(=O)N1CCC[C@H]1c1noc(C2(O)CC2)n1)Cc1cc(F)c(F)cc1F	23 µM	–	–	–	–	–
CS(=O)(=O)N1CC(c2noc([C@@H]3CCCN3C(=O)C[C@H](N)Cc3cc(F)c(F)cc3F)n2)C1	3.8 µM	0.96	> 2 h	> 2 h	–	Papp [7]: 0.15 ×10⁻⁶ cm/s; Papp [8]: 28 ×10⁻⁶ cm/s
N[C@@H](CC(=O)N1CCC[C@H]1c1nc(C2(C(F)(F)F)CC2)no1)Cc1cc(F)c(F)cc1F	2.8 µM	–	–	–	–	–
N[C@@H](CC(=O)N1CCC[C@H]1c1nc(N2CCCC2)no1)Cc1cc(F)c(F)cc1F	3.2 µM	–	–	–	> 100 µM	–
CC(C)(C)c1noc([C@@H]2CCCN2C(=O)C[C@H](N)Cc2cc(F)c(F)cc2F)n1	7 µM	1.85	1.33 h	0.133 h	39 µM	Papp A→B [3]: 20 ×10⁻⁶ cm/s; Papp B→A [4]: 49 ×10⁻⁶ cm/s; half-life [10]: 1.6 h; clearance [11]: 120 mL/min/kg; Vd [12]: 20.5 L/kg; bioavailability [13]: 3%
N[C@@H](CC(=O)N1CCC[C@H]1c1noc(C2(C(F)(F)F)CC2)n1)Cc1cc(F)c(F)cc1F	10 µM	2.16	> 2 h	1 h	–	Papp A→B [3]: 23 ×10⁻⁶ cm/s; Papp B→A [4]: 49 ×10⁻⁶ cm/s; half-life [10]: 2.3 h; clearance [11]: 115 mL/min/kg; Vd [12]: 17.5 L/kg; bioavailability [13]: 43%
N[C@@H](CC(=O)N1CCC[C@H]1c1noc(C2CC2)n1)Cc1cc(F)c(F)cc1F	11 µM	–	–	–	> 100 µM	–
CC1(c2nc([C@@H]3CCCN3C(=O)C[C@H](N)Cc3cc(F)c(F)cc3F)no2)COC1	38 µM	–	–	–	> 100 µM	–
N[C@@H](CC(=O)N1CCC[C@H]1c1nc(-c2ncc(F)cc2F)no1)Cc1cc(F)c(F)cc1F	2 µM	1.32	> 2 h	> 2 h	> 100 µM	Papp A→B [3]: 3 ×10⁻⁶ cm/s; Papp B→A [4]: 73 ×10⁻⁶ cm/s; half-life [10]: 2.4 h; clearance [11]: 100 mL/min/kg; Vd [12]: 17.7 L/kg; bioavailability [13]: 56%; Activity [14]: Active; inhibition [15]: 79%; inhibition [16]: 64%
N[C@@H](CC(=O)N1CCC[C@H]1c1noc(C2(F)CC2)n1)Cc1cc(F)c(F)cc1F	14 µM	–	–	–	–	–
N[C@@H](CC(=O)N1CCC[C@H]1c1nc(N2CCOCC2)no1)Cc1cc(F)c(F)cc1F	5.6 µM	–	–	–	> 100 µM	–
CC(C)(F)c1nc([C@@H]2CCCN2C(=O)C[C@H](N)Cc2cc(F)c(F)cc2F)no1	16 µM	1.46	> 2 h	1.7 h	> 100 µM	Papp A→B [3]: 14 ×10⁻⁶ cm/s; Papp B→A [4]: 62 ×10⁻⁶ cm/s; half-life [10]: 1 h; clearance [11]: 31.7 mL/min/kg; Vd [12]: 2.9 L/kg; bioavailability [13]: 100%; Activity [14]: Active; inhibition [15]: 70%; inhibition [16]: 56%
N[C@@H](CC(=O)N1CCC[C@H]1c1nc(CC2CC2)no1)Cc1cc(F)c(F)cc1F	4 µM	–	–	–	> 100 µM	–
CC(C)(C)c1nc([C@@H]2CCCN2C(=O)C[C@H](N)Cc2cc(F)c(F)cc2F)no1	36 µM	–	–	–	> 100 µM	–
N[C@@H](CC(=O)N1CCC[C@H]1c1nc(-c2cnccn2)no1)Cc1cc(F)c(F)cc1F	2.3 µM	–	–	–	> 100 µM	–
